Here are results for 21 compounds from patent US10689383B2, “Optionally fused heterocyclyl-substituted derivatives of pyrimidine useful for the treatment of inflammatory, metabolic, oncologic and autoimmune diseases” (NUEVOLUTION A/S, priority 2014, dated 2020).

Experiment [1] has as its target T1, yeast Gal4-DNA binding domain fused to the ligand binding domain of human RORγ (Homo sapiens, UniProt P51449).
T1 construct: host or cells: HEK293t
T1 sequence (P51449 269-508 limits assumed): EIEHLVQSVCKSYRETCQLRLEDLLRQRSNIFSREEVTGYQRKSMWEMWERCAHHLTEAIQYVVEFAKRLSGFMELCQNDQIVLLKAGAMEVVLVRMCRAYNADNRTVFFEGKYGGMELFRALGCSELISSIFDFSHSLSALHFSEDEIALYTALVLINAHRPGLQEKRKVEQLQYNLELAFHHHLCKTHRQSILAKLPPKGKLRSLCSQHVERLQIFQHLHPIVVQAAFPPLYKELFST
Description: RORγ Reporter Assay (Gal4). The conditions noted are these: values given as lower bounds of ranges; for Gal4 activity range @ 0.1 μM (% inhibition): RORγ Reporter Assay (Gal4) at 0.1 μM; for Gal4 activity range @ 1 μM (% inhibition): RORγ Reporter Assay (Gal4) at 1 μM. In kind it is cell-based. In a few lines:
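HEK293t reporter cells expressing the hybrid, with Gal4-UAS-driven firefly luciferase, treated in triplicate with compound at 1,000 nM and 100 nM (0.1% DMSO) in medium with 10% charcoal-stripped FBS for 24 h at 37 °C. Luminescence read; percent reduction of RLU calculated relative to vehicle.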
In general terms: Reporter assays use an easily measured gene product as a stand-in for the process of interest.

The target of experiment [2] is T2, human RORγt (Ligand Binding Domain) (Homo sapiens, UniProt P51449).
T2 construct: purchased Crelux (Planegg, Germany) batch no PC5032-1
T2 sequence (P51449 269-508 limits assumed): T1 sequence (P51449 269-508 limits assumed)
Description: Fluorescence Polarization (FP) Assay. Conditions: Fluorescence Polarization (FP) Assay; values given as upper bounds of activity ranges; read-out: FP activity range. In a few lines:
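In vitro FP binding assay monitoring ligand binding within the ligand binding pocket. Probe is a TAMRA-labelled RORγt ligand (MW 910 g/mole); DMSO served as negative control.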

Turning to `NS(=O)(=O)c1ccc(CNc2ncnc(N3CCC[C@@H]3c3ccc(C(F)(F)F)cc3)c2F)cc1` [Example 182, 4-[[[5-fluoro-6-[(2R)-2-[4-(trifluoromethyl)phenyl]pyrrolidin-1-yl]pyrimidin-4-yl]amino]methyl]benzenesulfonamide], the “Gal4 activity range @ 0.1 μM (% inhibition)” value in experiment [1] is more than 50 % inhibition. Moreover, the IC50 in experiment [2] was less than 500 nM.
Regarding `O=C(O)Cc1ccc(CNc2ncnc(N3CCOCC3c3ccccc3)c2F)s1` (centres unmarked) [Example 282, 2-[5-[[[5-fluoro-6-(3-phenylmorpholin-4-yl)pyrimidin-4-yl]amino]methyl]-2-thienyl]acetic acid], in experiment [1], the “Gal4 activity range @ 0.1 μM (% inhibition)” value is given as more than 0 % inhibition and the “Gal4 activity range @ 1 μM (% inhibition)” value was more than 0 % inhibition. For the same compound, in experiment [2], the IC50 was less than 10000 nM.
With `NC(=O)Cc1ccc(Cn2ccc3c(N4CCC[C@@H]4c4ccc(C(F)(F)F)cc4)ncnc32)cc1` [Example 196, 2-[4-[[4-[(2R)-2-[4-(trifluoromethyl)phenyl]pyrrolidin-1-yl]pyrrolo[2,3-d]pyrimidin-7-yl]methyl]phenyl]acetamide], the “Gal4 activity range @ 0.1 μM (% inhibition)” value in experiment [1] was more than 80 % inhibition. The IC50 in experiment [2] was less than 500 nM.
As to `N#CC[C@H]1CC[C@H](CNc2ncnc(N3CCOC[C@@H]3c3ccc(C(F)(F)F)cc3)c2F)CC1` [Example 287, 2-[4-[[[5-fluoro-6-[(3S)-3-[4-(trifluoromethyl)phenyl]morpholin-4-yl]pyrimidin-4-yl]amino]methyl]cyclohexyl] acetonitrile], in experiment [1], the “Gal4 activity range @ 0.1 μM (% inhibition)” value is more than 50 % inhibition and the “Gal4 activity range @ 1 μM (% inhibition)” value is recorded as more than 80 % inhibition. Also, the IC50 in experiment [2] is less than 500 nM.
On the same counts, the results for `CC1(CNc2ncnc(N3CCC[C@@H]3c3ccc(C(F)(F)F)cc3)c2F)COC1` [Example 198, 5-fluoro-N-[(3-methyloxetan-3-yl)methyl]-6-[2-[4-(trifluoromethyl)phenyl]pyrrolidin-1-yl]pyrimidin-4-amine] are more than 20 % inhibition, more than 80 % inhibition and less than 500 nM.
For `Cc1ccc(CNc2ncnc(N3CCCC3(C)c3ccc(C(F)(F)F)cc3)c2F)cn1` (centres unmarked) [Example 209, 5-fluoro-N-[(6-methyl-3-pyridyl)methyl]-6-[2-methyl-2-[4-(trifluoromethyl)phenyl]pyrrolidin-1-yl]pyrimidin-4-amine], in experiment [1], the “Gal4 activity range @ 0.1 μM (% inhibition)” value is listed as more than 20 % inhibition and the “Gal4 activity range @ 1 μM (% inhibition)” value is more than 50 % inhibition. In addition, the IC50 in experiment [2] was less than 1000 nM.
The corresponding values for `NC(=O)Cc1ccc(CNc2ncnc(N3CCCC3c3ccc4c(c3)OCO4)c2F)cc1` (centres unmarked) [Example 299, 2-[4-[[[6-[2-(1,3-benzodioxol-5-yl)pyrrolidin-1-yl]-5-fluoro-pyrimidin-4-yl]amino]methyl]phenyl]acetamide] are more than 0 % inhibition, more than 80 % inhibition and less than 1000 nM.
As to `O=C(O)Cc1ccc(Cn2ccc3c(N4CCC[C@@H]4c4ccc(C(F)(F)F)cc4)ncnc32)cc1` [Example 195, 2-[4-[[4-[(2R)-2-[4-(trifluoromethyl)phenyl]pyrrolidin-1-yl]pyrrolo[2,3-d]pyrimidin-7-yl]methyl]phenyl]acetic acid], the “Gal4 activity range @ 0.1 μM (% inhibition)” value in experiment [1] was more than 80 % inhibition. Besides, in experiment [2], the IC50 is less than 500 nM.
With `Cc1ccc(COc2ncnc(N3CCCC3c3ccc(C(F)(F)F)c(F)c3)c2F)cn1` (centres unmarked) [Example 73, 5-fluoro-4-[2-[3-fluoro-4-(trifluoromethyl)phenyl]pyrrolidin-1-yl]-6-[(6-methyl-3-pyridyl)methoxy]pyrimidine], in experiment [1], the “Gal4 activity range @ 0.1 μM (% inhibition)” value was more than 0 % inhibition and the “Gal4 activity range @ 1 μM (% inhibition)” value is recorded as more than 20 % inhibition. Further, the IC50 in experiment [2] is less than 2000 nM.
On the same counts, the results for `NC(=O)Cc1ccc(CNc2ncnc(N3CCCC3c3ccc(O)cc3)c2F)cc1` (centres unmarked) [Example 300, 2-[4-[[[5-fluoro-6-[2-(4-hydroxyphenyl)pyrrolidin-1-yl]pyrimidin-4-yl]amino]methyl]phenyl]acetamide] are more than 20 % inhibition, more than 20 % inhibition and less than 10000 nM.
For the compound `O=C(O)Cc1ccc(CNc2ncnc(N3CCCC3c3ccc(OC(F)(F)F)cc3)c2F)cc1` (centres unmarked) [Example 192, 2-[4-[[[5-fluoro-6-[2-[4-(trifluoromethoxy)phenyl]pyrrolidin-1-yl]pyrimidin-4-yl]amino]methyl]phenyl]acetic acid], the “Gal4 activity range @ 0.1 μM (% inhibition)” value in experiment [1] is more than 50 % inhibition. Further, the IC50 in experiment [2] is less than 500 nM.
With `COc1cc(C(F)(F)F)ccc1C1CCCN1c1ncnc(N[C@H](CC(C)(C)C)C(N)=O)c1F` (stereo partly drawn) [Example 65, (2R)-2-[[5-fluoro-6-[2-[2-methoxy-4-(trifluoromethyl)phenyl]pyrrolidin-1-yl]pyrimidin-4-yl]amino]-4,4-dimethyl-pentanamide], the “Gal4 activity range @ 1 μM (% inhibition)” value in experiment [1] is recorded as more than 20 % inhibition. In addition, the IC50 in experiment [2] is less than 500 nM.
On to `CS(=O)(=O)N1CCC(CNc2ncnc(N3CCOC[C@@H]3c3ccc(C(F)(F)F)cc3)c2F)CC1` [Example 237, 5-fluoro-N-[(1-methylsulfonyl-4-piperidyl)methyl]-6-[(3S)-3-[4-(trifluoromethyl)phenyl]morpholin-4-yl]pyrimidin-4-amine], for which, in experiment [1], the “Gal4 activity range @ 0.1 μM (% inhibition)” value was more than 80 % inhibition and the “Gal4 activity range @ 1 μM (% inhibition)” value was more than 80 % inhibition. Besides, in experiment [2], the IC50 was less than 500 nM.
For `OC1(CNc2ncnc(N3CCC[C@@H]3c3ccc(C(F)(F)F)cc3)c2F)CCOC1` (stereo partly drawn) [Example 220, 3-[[[5-fluoro-6-[(2R)-2-[4-(trifluoromethyl)phenyl]pyrrolidin-1-yl]pyrimidin-4-yl]amino]methyl]tetrahydrofuran-3-ol], in experiment [1], the “Gal4 activity range @ 0.1 μM (% inhibition)” value was more than 20 % inhibition and the “Gal4 activity range @ 1 μM (% inhibition)” value is on record as more than 80 % inhibition. For the same compound, in experiment [2], the IC50 is less than 500 nM.
As for `Oc1ccc(CNc2ncnc(N3CCCC3c3ccc(C(F)(F)F)cc3)c2F)cn1` (centres unmarked) [Example 100, 5-[[[5-fluoro-6-[2-[4-(trifluoromethyl)phenyl]pyrrolidin-1-yl]pyrimidin-4-yl]amino]methyl]pyridin-2-ol], the “Gal4 activity range @ 1 μM (% inhibition)” value in experiment [1] was more than 20 % inhibition. The IC50 in experiment [2] is less than 2000 nM.
As to `CS(=O)(=O)Cc1ccc(CNc2ncnc(N3CCCC3c3ccc(C(F)(F)F)cc3)c2F)cc1` (centres unmarked) [Example 95, 5-fluoro-N-[[4-(methylsulfonylmethyl)phenyl]methyl]-6-[2-[4-(trifluoromethyl)phenyl]pyrrolidin-1-yl]pyrimidin-4-amine], in experiment [1], the “Gal4 activity range @ 0.1 μM (% inhibition)” value was more than 20 % inhibition and the “Gal4 activity range @ 1 μM (% inhibition)” value is given as more than 80 % inhibition. Moreover, the IC50 in experiment [2] was less than 1000 nM.
The corresponding values for `CS(=O)(=O)N1CCC(F)(CNc2ncnc(N3CCOC[C@@H]3c3ccc(C(F)(F)F)cc3)c2F)CC1` [Example 266, 5-fluoro-N-[(4-fluoro-1-methylsulfonyl-4-piperidyl)methyl]-6-[(3S)-3-[4-(trifluoromethyl)phenyl]morpholin-4-yl]pyrimidin-4-amine] are more than 80 % inhibition, more than 80 % inhibition and less than 500 nM.
The corresponding values for `COC(=O)C1(CNc2ncnc(N3CCOCC3c3ccc(C(F)(F)F)cc3)c2F)CCOCC1` (centres unmarked) [Example 254, methyl 4-[[[5-fluoro-6-[3-[4-(trifluoromethyl)phenyl]morpholin-4-yl]pyrimidin-4-yl]amino]methyl]tetrahydropyran-4-carboxylate] are more than 50 % inhibition, more than 80 % inhibition and less than 500 nM.
In the case of `CC(OC(C)(C)C)[C@@H](Nc1ncnc(N2CCCC2c2ccc(C(F)(F)F)cc2)c1F)C(N)=O` (stereo partly drawn) [Example 51, (2R)-3-tert-butoxy-2-[[5-fluoro-6-[2-[4-(trifluoromethyl)phenyl]pyrrolidin-1-yl]pyrimidin-4-yl]amino]butanamide], in experiment [1], the “Gal4 activity range @ 1 μM (% inhibition)” value is recorded as more than 80 % inhibition. In addition, the IC50 in experiment [2] was less than 1000 nM.
Consider `NC(=O)Cc1ccc(CNc2ncnc(N3CCC[C@@H]3c3ccc(C(F)(F)F)cc3F)c2F)cc1` [Example 232, 2-[4-[[[5-fluoro-6-[(2R)-2-[2-fluoro-4-(trifluoromethyl)phenyl]pyrrolidin-1-yl]pyrimidin-4-yl]amino]methyl]phenyl]acetamide], for which, in experiment [1], the “Gal4 activity range @ 0.1 μM (% inhibition)” value is listed as more than 50 % inhibition and the “Gal4 activity range @ 1 μM (% inhibition)” value is reported as more than 80 % inhibition. The IC50 in experiment [2] was less than 500 nM.
On the same counts, the results for `COc1cccc(C2CCCN2c2ncnc(NCc3ccc(CC(N)=O)cc3)c2F)c1` (centres unmarked) [Example 304, 2-[4-[[[5-fluoro-6-[2-(3-methoxyphenyl)pyrrolidin-1-yl]pyrimidin-4-yl]amino]methyl]phenyl]acetamide] are more than 20 % inhibition, more than 80 % inhibition and less than 500 nM.
